The test system of data set [1] is lymphoma cell line JY 616. Kind of data set: Telomere length of JY lymphoma cells by Southern blot. The format is cell-based, human. Conditions: AZT treated cells, week 3. The method, then:
The first lane is DNA from the cells at the start of the experiment, the second is the RPMI control, and the third is cells treated with AZT for the times indicated.
Cells were treated over a 10 week period with either 10 μM ddG in 0.01% DMSO or medium with 0.01% DMSO only.
The effect of the agents on telomerase activity in intact cells was then studied utilizing the lymphoma cell line JY 616 which were maintained in RPMI 1640 with […] Hepes, 10% FCS, and penicillin/streptomycin (Gibco). The cells were cultured in 6-well plates (Falcon) with 5.0 ML of medium per well in duplicate. Cells were passaged every 7-10 days which corresponded to 5-7 mean population doublings (MPD), and seeded at 3×10^4 cells per well into fresh medium containing analog or control. Cell viability was monitored prior to harvest utilizing trypan blue stain (Gibco) during counting with a hemocytometer. The average ratio of stained: unstained cells (dead:alive) was […]. The intactness of the DNA was measured on a parallel gel by observing its mobility in a gel prior to digestion by a restriction enzyme.

In data set [2] the test system is Tetrahymena cells. Kind of data set: Growth, morphology and senescence of Tetrahymena mass-transfer cultures with nucleoside analogs. The data set is classed as cell-based, Tetrahymena thermophila. Here is the method: For analysis of macronuclear DNA from cultures containing the nucleoside analog AZT (Sigma), or controls lacking analog, at various timepoints during vegetative divisions, cells from stationary stock cultures were inoculated into 25 ml thymine-deficient Iso-sensitest broth (‘Isobroth’, Oxoid USA) in 250 ml flasks. Cultures were incubated at 30° C. with shaking (100 rpm) for 48 hours. Cells were counted and plated at 1000 cells/1.5 ml in 24-well plates (Falcon) and grown at 30° C., without shaking, for 48 hours. 5 μl of these log phase cells were used to inoculate 1 ml cultures (Isobroth) containing varied concentrations of nucleoside analog. Thereafter, every 2-4 days cells were transferred, either 5 μl per well, or 1-3 μl using a multi-pronged replicator into fresh 1 ml broth containing AZT. Remaining cells were pelleted and stored at −80° C. until processed for DNA analysis.
For analysis of macronuclear DNA from vegetative cultures containing the nucleoside analogs Ara-G (Calbiochem), ddG (Calbiochem), or ddI (Calbiochem), or controls lacking analog, stock cultures were grown overnight in 2% PPYS as described. Cells were counted and plated at 100 cells/2 ml in 2% PPYS containing varied amounts of analog, 1% DMSO (Fisher) (as a control for ddG and Ara-G), or 2% PPYS alone. Cells were replica plated into fresh medium every 2-6 days, and remaining cells were pelleted and stored at −80° C. until processed for DNA analysis.
To test whether such a phenotype could be produced by inhibitors of telomerase in Tetrahymena, duplicate log-phase cultures were grown for prolonged periods in the presence of varying concentrations of analogs. The growth and cell morphology of these cultures were monitored, and DNA was isolated at different times for telomere length analysis. […] From growth rate measurements it was calculated that the cells went through 150 to 250 cell generations in the course of this 50 day period.

For data set [3], the system named is Tetrahymena cells. Kind of data set: Telomere length in vegetatively grown Tetrahymena by Southern blot. The data set is classed as cell-based, Tetrahymena thermophila.

Each structure is given as a SMILES string. Where only a bound is given, the exact number is not on record here.

`Cc1cn([C@H]2C[C@H](N=[N+]=[N-])[C@@H](CO)O2)c(=O)[nH]c1=O` [AZT]: the “mean telomere length compared to the control medium” value in data set [1] is “marked decrease in mean telomere length”. Besides, the “effect on cell growth and survival” value in data set [2] (5 or 10 mM in Isobroth medium) is “strongly inhibited cell growth and killed cells within a day”. For the same compound, the senescence of cultures result in data set [2] (up to 1 mM in Isobroth, 50-day continuous growth, ˜10^3 cells per transfer) is reported as “did not result in senescence”. In data set [3] (10 μM, the lowest concentration tested), the “fraction of the maximal telomere shortening effect” value is listed as “at least 50%”. Further, in data set [3] (1 and 5 mM in 2% PPYS medium), the “shortening of telomeres compared with control cultures” value is reported as at most 170 base pairs.

These data come from patent US6551774B1, “Diagnostic methods for conditions associated with elevated cellular levels of telomerase activity” (Board of Regents, The University of Texas System, priority 1992, dated 2003).
